Measurements: patent US5672715A, “Herbicidal substituted 3-aryl-pyrazoles” (Monsanto Company, priority 1995, dated 1997)

Experiments:
Type in all cases: in vivo
Soybean [1] = test: post-emergence herbicide test; conditions: Glycine max, post-emergence, 0.25 lb/A; read-out: % plant inhibition
Summary of the method: (§1)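 Soil pans seeded, covered and leveled; grown in greenhouse 2–3 weeks. Sprayed individually (atomizer, 10 psig, 200 gallons/acre). Percent inhibition recorded.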

Wheat [2] = test: post-emergence herbicide test; conditions: Triticum aestivum, post-emergence, 0.25 lb/A; read-out: % plant inhibition
Summary of the method: as §1

Blackgrass [3] = test: post-emergence herbicide test; conditions: Alopecurus myosuroides, post-emergence, 0.25 lb/A; read-out: % plant inhibition
Summary of the method: as §1

Bedstraw Catchweed [4] = test: post-emergence herbicide test; conditions: Galium aparine, post-emergence, 0.25 lb/A; read-out: % plant inhibition
Summary of the method: as §1

Downy Brome [5] = test: post-emergence herbicide test; conditions: Bromus tectorum, post-emergence, 0.25 lb/A; read-out: % plant inhibition
Summary of the method: as §1

Common Chickweed [6] = test: post-emergence herbicide test; conditions: post-emergence, 0.25 lb/A; read-out: % plant inhibition
Summary of the method: as §1

Seedling Johnsongrass [7] = test: post-emergence herbicide test; conditions: Sorghum halepense, post-emergence, 0.25 lb/A; read-out: % plant inhibition
Summary of the method: as §1

Wild Oats [8] = test: post-emergence herbicide test; conditions: Avena fatua, post-emergence, 0.25 lb/A; read-out: % plant inhibition
Summary of the method: as §1

Birdseye Speedwell [9] = test: post-emergence herbicide test; conditions: post-emergence, 0.25 lb/A; read-out: % plant inhibition
Summary of the method: as §1

Velvetleaf [10] = test: post-emergence herbicide test; conditions: Abutilon theophrasti, post-emergence, 0.25 lb/A; read-out: % plant inhibition
Summary of the method: as §1

Corn [11] = test: post-emergence herbicide test; conditions: Zea mays, post-emergence, 0.25 lb/A; read-out: % plant inhibition
Summary of the method: as §1

Giant Foxtail [12] = test: post-emergence herbicide test; conditions: Setaria faberi, post-emergence, 0.25 lb/A; read-out: % plant inhibition
Summary of the method: as §1

Morning Glory [13] = test: post-emergence herbicide test; conditions: Ipomoea, post-emergence, 0.25 lb/A; read-out: % plant inhibition
Summary of the method: as §1

Cocklebur [14] = test: post-emergence herbicide test; conditions: Xanthium strumarium, post-emergence, 0.25 lb/A; read-out: % plant inhibition
Summary of the method: as §1

Green Foxtail [15] = test: post-emergence herbicide test; conditions: Setaria viridis, post-emergence, 0.25 lb/A; read-out: % plant inhibition
Summary of the method: as §1

Barnyardgrass [16] = test: post-emergence herbicide test; conditions: Echinochloa crus-galli, post-emergence, 0.25 lb/A; read-out: % plant inhibition
Summary of the method: as §1

Rape [17] = test: post-emergence herbicide test; conditions: post-emergence, 0.25 lb/A; read-out: % plant inhibition
Summary of the method: as §1

Soybean [18] = test: pre-emergence herbicide test; conditions: Glycine max, pre-emergence, 0.25 lb/A; read-out: % plant inhibition
Summary of the method: (§2)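 Soil-applied pre-emergence screen: compound added to cover topsoil over sown seeds, pans held on greenhouse bench with subirrigation, % inhibition scored ~2 weeks later.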

Wheat [19] = test: pre-emergence herbicide test; conditions: Triticum aestivum, pre-emergence, 0.25 lb/A; read-out: % plant inhibition
Summary of the method: as §2

Blackgrass [20] = test: pre-emergence herbicide test; conditions: Alopecurus myosuroides, pre-emergence, 0.25 lb/A; read-out: % plant inhibition
Summary of the method: as §2

Bedstraw Catchweed [21] = test: pre-emergence herbicide test; conditions: Galium aparine, pre-emergence, 0.25 lb/A; read-out: % plant inhibition
Summary of the method: as §2

Downy Brome [22] = test: pre-emergence herbicide test; conditions: Bromus tectorum, pre-emergence, 0.25 lb/A; read-out: % plant inhibition
Summary of the method: as §2

Common Chickweed [23] = test: pre-emergence herbicide test; conditions: pre-emergence, 0.25 lb/A; read-out: % plant inhibition
Summary of the method: as §2

Seedling Johnsongrass [24] = test: pre-emergence herbicide test; conditions: Sorghum halepense, pre-emergence, 0.25 lb/A; read-out: % plant inhibition
Summary of the method: as §2

Wild Oats [25] = test: pre-emergence herbicide test; conditions: Avena fatua, pre-emergence, 0.25 lb/A; read-out: % plant inhibition
Summary of the method: as §2

Birdseye Speedwell [26] = test: pre-emergence herbicide test; conditions: pre-emergence, 0.25 lb/A; read-out: % plant inhibition
Summary of the method: as §2

Velvetleaf [27] = test: pre-emergence herbicide test; conditions: Abutilon theophrasti, pre-emergence, 0.25 lb/A; read-out: % plant inhibition
Summary of the method: as §2

Corn [28] = test: pre-emergence herbicide test; conditions: Zea mays, pre-emergence, 0.25 lb/A; read-out: % plant inhibition
Summary of the method: as §2

Giant Foxtail [29] = test: pre-emergence herbicide test; conditions: Setaria faberi, pre-emergence, 0.25 lb/A; read-out: % plant inhibition
Summary of the method: as §2

Morning Glory [30] = test: pre-emergence herbicide test; conditions: Ipomoea, pre-emergence, 0.25 lb/A; read-out: % plant inhibition
Summary of the method: as §2

Cocklebur [31] = test: pre-emergence herbicide test; conditions: Xanthium strumarium, pre-emergence, 0.25 lb/A; read-out: % plant inhibition
Summary of the method: as §2

Green Foxtail [32] = test: pre-emergence herbicide test; conditions: Setaria viridis, pre-emergence; 0.25 lb/A; read-out: % plant inhibition
Summary of the method: as §2

Barnyardgrass [33] = test: pre-emergence herbicide test; conditions: Echinochloa crus-galli, pre-emergence, 0.25 lb/A; read-out: % plant inhibition
Summary of the method: as §2

Rape [34] = test: pre-emergence herbicide test; conditions: pre-emergence, 0.25 lb/A; read-out: % plant inhibition
Summary of the method: as §2

Structure (SMILES)	inhibition at 280.212 g/ha (Soybean [1])	inhibition at 280.212 g/ha (Wheat [2])	inhibition at 280.212 g/ha (Blackgrass [3])	inhibition at 280.212 g/ha (Bedstraw Catchweed [4])	inhibition at 280.212 g/ha (Downy Brome [5])	inhibition at 280.212 g/ha (Common Chickweed [6])	inhibition at 280.212 g/ha (Seedling Johnsongrass [7])	inhibition at 280.212 g/ha (Wild Oats [8])	inhibition at 280.212 g/ha (Birdseye Speedwell [9])	inhibition at 280.212 g/ha (Velvetleaf [10])	inhibition at 280.212 g/ha (Corn [11])	inhibition at 280.212 g/ha (Giant Foxtail [12])	inhibition at 280.212 g/ha (Morning Glory [13])	inhibition at 280.212 g/ha (Cocklebur [14])	inhibition at 280.212 g/ha (Green Foxtail [15])	inhibition at 280.212 g/ha (Barnyardgrass [16])	inhibition at 280.212 g/ha (Rape [17])	inhibition at 280.212 g/ha (Soybean [18])	inhibition at 280.212 g/ha (Wheat [19])	inhibition at 280.212 g/ha (Blackgrass [20])	further results
C#CCOC(=O)c1cc(-c2nn(C)c(C(F)(F)F)c2C)c(F)cc1Cl [Compound 42]	10%	15%	20%	100%	30%	95%	45%	20%	95%	98%	25%	0%	70%	85%	40%	65%	40%	0%	0%	15%	inhibition at 280.212 g/ha (Bedstraw Catchweed [21]): 80%; inhibition at 280.212 g/ha (Downy Brome [22]): 10%; inhibition at 280.212 g/ha (Common Chickweed [23]): 40%; inhibition at 280.212 g/ha (Seedling Johnsongrass [24]): 0%; inhibition at 280.212 g/ha (Wild Oats [25]): 5%; inhibition at 280.212 g/ha (Birdseye Speedwell [26]): 30%; inhibition at 280.212 g/ha (Velvetleaf [27]): 65%; inhibition at 280.212 g/ha (Corn [28]): 5%; inhibition at 280.212 g/ha (Giant Foxtail [29]): 0%; inhibition at 280.212 g/ha (Morning Glory [30]): 60%; inhibition at 280.212 g/ha (Cocklebur [31]): 65%; inhibition at 280.212 g/ha (Green Foxtail [32]): 95%; inhibition at 280.212 g/ha (Barnyardgrass [33]): 35%; inhibition at 280.212 g/ha (Rape [34]): 5%
Cc1c(-c2ccc(Cl)cc2)nn(C)c1C(F)(F)F [Compound 7, 3-(4-chlorophenyl)-1,4-dimethyl-5-(trifluoromethyl)pyrazole]	5%	5%	5%	35%	5%	0%	0%	5%	65%	5%	0%	0%	0%	0%	20%	0%	0%	0%	0%	0%	inhibition at 280.212 g/ha (Bedstraw Catchweed [21]): 5%; inhibition at 280.212 g/ha (Downy Brome [22]): 0%; inhibition at 280.212 g/ha (Common Chickweed [23]): 0%; inhibition at 280.212 g/ha (Seedling Johnsongrass [24]): 25%; inhibition at 280.212 g/ha (Wild Oats [25]): 0%; inhibition at 280.212 g/ha (Birdseye Speedwell [26]): 0%; inhibition at 280.212 g/ha (Velvetleaf [27]): 0%; inhibition at 280.212 g/ha (Corn [28]): 0%; inhibition at 280.212 g/ha (Giant Foxtail [29]): 15%; inhibition at 280.212 g/ha (Morning Glory [30]): 0%; inhibition at 280.212 g/ha (Cocklebur [31]): 0%; inhibition at 280.212 g/ha (Green Foxtail [32]): 0%; inhibition at 280.212 g/ha (Barnyardgrass [33]): 0%; inhibition at 280.212 g/ha (Rape [34]): 0%
COCCOC(=O)c1cc(-c2nn(C)c(C(F)(F)F)c2C)c(F)cc1Cl [Compound 56]	90%	16%	60%	98%	85%	90%	95%	80%	100%	100%	35%	100%	80%	99%	98%	50%	98%	0%	5%	75%	inhibition at 280.212 g/ha (Bedstraw Catchweed [21]): 90%; inhibition at 280.212 g/ha (Downy Brome [22]): 100%; inhibition at 280.212 g/ha (Common Chickweed [23]): 95%; inhibition at 280.212 g/ha (Seedling Johnsongrass [24]): 50%; inhibition at 280.212 g/ha (Wild Oats [25]): 55%; inhibition at 280.212 g/ha (Birdseye Speedwell [26]): 100%; inhibition at 280.212 g/ha (Velvetleaf [27]): 100%; inhibition at 280.212 g/ha (Corn [28]): 0%; inhibition at 280.212 g/ha (Giant Foxtail [29]): 90%; inhibition at 280.212 g/ha (Morning Glory [30]): 80%; inhibition at 280.212 g/ha (Cocklebur [31]): 20%; inhibition at 280.212 g/ha (Green Foxtail [32]): 100%; inhibition at 280.212 g/ha (Barnyardgrass [33]): 100%; inhibition at 280.212 g/ha (Rape [34]): 5%
